Assay results taken from patent US9326986B2, “Quinazolinone, quinolone and related analogs as sirtuin modulators” (GLAXOSMITHKLINE LLC, priority 2008, dated 2016).

Biological target: T1, SIRT1 (Homo sapiens, UniProt Q96EB6)
T1 sequence (Q96EB6 1-747): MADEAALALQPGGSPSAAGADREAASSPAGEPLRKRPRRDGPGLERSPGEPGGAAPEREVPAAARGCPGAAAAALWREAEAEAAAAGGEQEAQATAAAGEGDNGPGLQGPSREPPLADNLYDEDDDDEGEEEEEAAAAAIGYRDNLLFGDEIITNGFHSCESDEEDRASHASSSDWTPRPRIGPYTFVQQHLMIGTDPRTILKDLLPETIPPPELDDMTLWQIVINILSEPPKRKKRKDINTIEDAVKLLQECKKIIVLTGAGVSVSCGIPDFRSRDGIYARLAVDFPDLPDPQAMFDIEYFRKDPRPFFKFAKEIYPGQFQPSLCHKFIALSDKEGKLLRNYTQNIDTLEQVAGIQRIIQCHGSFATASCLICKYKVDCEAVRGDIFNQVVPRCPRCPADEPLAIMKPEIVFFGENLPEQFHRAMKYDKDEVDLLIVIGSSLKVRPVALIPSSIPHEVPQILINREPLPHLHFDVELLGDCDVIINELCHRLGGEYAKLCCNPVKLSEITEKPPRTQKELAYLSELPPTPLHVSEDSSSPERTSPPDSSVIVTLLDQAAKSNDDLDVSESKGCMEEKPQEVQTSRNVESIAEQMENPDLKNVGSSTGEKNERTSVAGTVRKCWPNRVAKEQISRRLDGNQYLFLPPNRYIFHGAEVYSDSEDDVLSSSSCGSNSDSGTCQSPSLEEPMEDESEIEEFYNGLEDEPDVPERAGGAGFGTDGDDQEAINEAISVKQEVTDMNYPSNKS
Assay: Mass spectrometry based assay to identify modulators of SIRT1 activity (deacetylation of p53-based acetylated peptide)
Type: biochemical
Conditions: 10 nM SIRT1, 0.5 μM peptide substrate, 120 μM βNAD+, 25 minutes at 25° C.; for EC1.5 μM: SIRT1 activation

| SMILES | % Fold Act. (percent maximum fold activation) | EC1.5 μM |
| --- | --- | --- |
| Cn1c(-c2cscn2)nc2c(NC(=O)c3cnccn3)cccc2c1=O [Compound 283] | B (Fold Activation<200%) | C (EC1.5>25 μM) |
| COc1cc(OC)nc(C(=O)Nc2cccc3c(=O)cc(-c4cccc(C(F)(F)F)c4)[nH]c23)n1 [Compound 423] | A (Fold activation>200%) | A (EC1.5<1.0 μM) |
| Cc1ncsc1-c1nc2c(C(=O)Nc3ccccn3)cccc2c(=O)n1C [Compound 226] | B (Fold Activation<200%) | B (EC1.5 1-25 μM) |
| Cn1c(-c2cccc(C(F)(F)F)c2)nc2c(C(=O)Nc3cccc(CN4CC[C@H](F)C4)n3)cccc2c1=O [Compound 352] | A (Fold activation>200%) | A (EC1.5<1.0 μM) |
| O=C(Nc1cccc2c(=O)cc(-c3cccc(Cl)c3)[nH]c12)c1cscn1 [Compound 446] | A (Fold activation>200%) | B (EC1.5 1-25 μM) |
| O=C(Nc1cccc2c(=O)cc(-c3cccc(C(F)(F)F)c3)[nH]c12)c1cccc(N2CCOCC2)n1 [Compound 425] | A (Fold activation>200%) | A (EC1.5<1.0 μM) |
| Cn1c(-c2cccc(OC(F)(F)F)c2)nc2c(C(=O)Nc3nccs3)cccc2c1=O [Compound 200] | B (Fold Activation<200%) | B (EC1.5 1-25 μM) |
| Cn1ccnc1-c1nc2c(C(=O)Nc3ccccn3)cccc2c(=O)n1C [Compound 227] | B (Fold Activation<200%) | C (EC1.5>25 μM) |
| CN1CCCC1C(=O)Nc1cccc2c(=O)n(C)c(-c3cccc(C(F)(F)F)c3)nc12 (stereo not shown) [Compound 331] | B (Fold Activation<200%) | B (EC1.5 1-25 μM) |
| O=C(Nc1cccc2c(=O)[nH]c(-c3ccccc3OC(F)(F)F)nc12)c1cnccn1 [Compound 318] | A (Fold activation>200%) | A (EC1.5<1.0 μM) |
| O=C(Nc1cccc2c(=O)cc(-c3cccc(C(F)(F)F)c3)[nH]c12)c1ncccn1 [Compound 417] | A (Fold activation>200%) | A (EC1.5<1.0 μM) |
| Cn1c(-c2cccc(OC(F)(F)F)c2)nc2c(NC(=O)c3cscn3)cccc2c1=O [Compound 203] | B (Fold Activation<200%) | C (EC1.5>25 μM) |
| O=C(Nc1nccs1)c1cccc2c(=O)cc(-c3ccccc3C(F)F)[nH]c12 [Compound 435] | A (Fold activation>200%) | B (EC1.5 1-25 μM) |
| Cn1c(-c2cccc(C(F)(F)F)c2)nc2c(NC(=O)c3ncccn3)cccc2c1=O [Compound 249] | A (Fold activation>200%) | A (EC1.5<1.0 μM) |
| Cn1c(-c2cccc(C(F)(F)F)c2)nc2c(C(=O)Nc3ccc(CN4CCOCC4)nc3)cccc2c1=O [Compound 301] | A (Fold activation>200%) | B (EC1.5 1-25 μM) |
| Cn1c(-c2ccccc2C(F)(F)F)nc2c(C(=O)Nc3ccccn3)cccc2c1=O [Compound 212, 3-methyl-4-oxo-N-(pyridin-2-yl)-2-(2-(trifluoromethyl)phenyl)-3,4-dihydroquinazoline-8-carboxamide] | A (Fold activation>200%) | B (EC1.5 1-25 μM) |
| Cn1c(-c2cccc(OC(F)F)c2)nc2c(NC(=O)c3cnccn3)cccc2c1=O [Compound 315] | A (Fold activation>200%) | A (EC1.5<1.0 μM) |
